Series [1] relates to Listeria monocytogenes. In words: Antibacterial activity against Listeria monocytogenes. Type of series: functional, organism-based.
For series [2], the system named is Candida albicans. As to the kind of experiment: Antifungal activity against fluconazole/ITC-susceptible Candida albicans ATCC MYA-2876 measured after 48 hrs by CLSI M27-A3 protocol based method. The note with it: ATCC MYA-2876, 48 h. Type of series: functional.
Series [3] deals with Candida albicans. In words: Antifungal activity against fluconazole/ITC-resistant Candida albicans ATCC MYA-1237 measured after 48 hrs by CLSI M27-A3 protocol based method. Type of series: functional. The note with it: ATCC MYA-1237, 48 h.
Series [4] relates to Candida parapsilosis. In words: Antifungal activity against Candida parapsilosis ATCC 22019 measured after 48 hrs by CLSI M27-A3 protocol based method. Type of series: functional. Particulars: Lodderomyces parapsilosis, ATCC 22019, 48 h.
Series [5] relates to Aspergillus flavus. As to the kind of experiment: Antifungal activity against Aspergillus flavus ATCC MYA-3631 measured after 48 hrs by CLSI M38-A2 protocol based method. Type of series: functional. The note with it: ATCC MYA-3631, 48 h.
Series [6] concerns Candida albicans. As to the kind of experiment: Antibiofilm activity against fluconazole/ITC-resistant Candida albicans ATCC 64124 assessed as reduction in sessile growth after 24 hrs by XTT assay. Type of series: functional. The note with it: ATCC 64124, 24 h. (Tetrazolium dyes change colour on reduction, which living cells bring about.)
Series [7] is described as follows: Selectivity index, ratio of CC50 for human A549 cells to MIC for fluconazole/ITC-resistant Candida albicans ATCC 10231. The note with it: read-out: Selectivity Index. Type of series: toxicity.
The nature of series [8]: Selectivity index, ratio of CC50 for human A549 cells to MIC for fluconazole/ITC-susceptible Candida albicans ATCC MYA-2876. Type of series: toxicity. Particulars: read-out: Selectivity Index.
The nature of series [9]: Selectivity index, ratio of CC50 for human A549 cells to MIC for fluconazole/ITC-resistant Candida albicans ATCC MYA-1003. Type of series: toxicity. Particulars: read-out: Selectivity Index.
The nature of series [10]: Selectivity index, ratio of CC50 for human A549 cells to MIC for Candida parapsilosis ATCC 22019. Particulars: read-out: Selectivity Index. Type of series: toxicity.
Series [11] is described as follows: Hemolytic activity in mouse RBC at 3.9 ug/ml after 1 hr relative to control. Type of series: ADME, cell-based, Erythrocyte. The note with it: red blood cells (erythrocytes), read-out: Activity.
Series [12] in a line: Hemolytic activity in mouse RBC at 62.5 ug/ml after 1 hr relative to control. Type of series: ADME, cell-based, Erythrocyte. The note with it: red blood cells (erythrocytes), read-out: Activity.
Series [13] is described as follows: Selectivity index, ratio of compound concentration showing <20 to <30% hemolysis in mouse RBC to MIC for fluconazole/ITC-resistant Candida albicans ATCC 10231. Type of series: toxicity. Particulars: red blood cells (erythrocytes), read-out: Selectivity Index.
Series [14] is described as follows: Selectivity index, ratio of compound concentration showing <20 to <30% hemolysis in mouse RBC to MIC for fluconazole/ITC-resistant Candida albicans ATCC 90819. Particulars: red blood cells (erythrocytes), read-out: Selectivity Index. Type of series: toxicity.
The nature of series [15]: Selectivity index, ratio of compound concentration showing <20 to <30% hemolysis in mouse RBC to MIC for fluconazole/ITC-resistant Candida albicans ATCC MYA-1003. Type of series: toxicity. The note with it: mouse red blood cells (RBC), read-out: Selectivity Index.
The nature of series [16]: Selectivity index, ratio of compound concentration showing <20 to <30% hemolysis in mouse RBC to MIC for Candida glabrata ATCC 2001. Type of series: toxicity. Particulars: mouse red blood cells (RBC), read-out: Selectivity Index.
Series [17] in a line: Selectivity index, ratio of compound concentration showing <20 to <30% hemolysis in mouse RBC to MIC for Aspergillus nidulans ATCC 38163. Type of series: toxicity. Particulars: mouse red blood cells (RBC), read-out: Selectivity Index.
Series [18] relates to Candida albicans. As to the kind of experiment: Fungicidal activity against fluconazole/ITC-resistant Candida albicans ATCC 64124 assessed as reduction in fungal growth at 0.5 to 2 times MIC incubated for 24 hrs followed by replating on PDA plates measured after 48 hrs Time-Kill assay. Type of series: functional, organism-based.
Series [19] addresses Voltage-gated inwardly rectifying potassium channel KCNH2 (Homo sapiens, UniProt Q12809). In words: Inhibition of [3H]-dofetilide binding to human ERG expressed in HEK293 cell membranes measured after 1 hr by liquid scintillation counting method.
In series [20] the test system is Candida albicans. In words: Selectivity ratio of MIC90 for antibiofilm activity against fluconazole/ITC-resistant Candida albicans ATCC 10231 assessed as reduction in sessile growth to MIC for fluconazole/ITC-resistant Candida albicans ATCC 10231. Type of series: functional.

Values after ≈ are worked out from the molar mass of the structure shown. Active and inactive are the calls of the source.

Chain of Voltage-gated inwardly rectifying potassium channel KCNH2 (Q12809 whole entry): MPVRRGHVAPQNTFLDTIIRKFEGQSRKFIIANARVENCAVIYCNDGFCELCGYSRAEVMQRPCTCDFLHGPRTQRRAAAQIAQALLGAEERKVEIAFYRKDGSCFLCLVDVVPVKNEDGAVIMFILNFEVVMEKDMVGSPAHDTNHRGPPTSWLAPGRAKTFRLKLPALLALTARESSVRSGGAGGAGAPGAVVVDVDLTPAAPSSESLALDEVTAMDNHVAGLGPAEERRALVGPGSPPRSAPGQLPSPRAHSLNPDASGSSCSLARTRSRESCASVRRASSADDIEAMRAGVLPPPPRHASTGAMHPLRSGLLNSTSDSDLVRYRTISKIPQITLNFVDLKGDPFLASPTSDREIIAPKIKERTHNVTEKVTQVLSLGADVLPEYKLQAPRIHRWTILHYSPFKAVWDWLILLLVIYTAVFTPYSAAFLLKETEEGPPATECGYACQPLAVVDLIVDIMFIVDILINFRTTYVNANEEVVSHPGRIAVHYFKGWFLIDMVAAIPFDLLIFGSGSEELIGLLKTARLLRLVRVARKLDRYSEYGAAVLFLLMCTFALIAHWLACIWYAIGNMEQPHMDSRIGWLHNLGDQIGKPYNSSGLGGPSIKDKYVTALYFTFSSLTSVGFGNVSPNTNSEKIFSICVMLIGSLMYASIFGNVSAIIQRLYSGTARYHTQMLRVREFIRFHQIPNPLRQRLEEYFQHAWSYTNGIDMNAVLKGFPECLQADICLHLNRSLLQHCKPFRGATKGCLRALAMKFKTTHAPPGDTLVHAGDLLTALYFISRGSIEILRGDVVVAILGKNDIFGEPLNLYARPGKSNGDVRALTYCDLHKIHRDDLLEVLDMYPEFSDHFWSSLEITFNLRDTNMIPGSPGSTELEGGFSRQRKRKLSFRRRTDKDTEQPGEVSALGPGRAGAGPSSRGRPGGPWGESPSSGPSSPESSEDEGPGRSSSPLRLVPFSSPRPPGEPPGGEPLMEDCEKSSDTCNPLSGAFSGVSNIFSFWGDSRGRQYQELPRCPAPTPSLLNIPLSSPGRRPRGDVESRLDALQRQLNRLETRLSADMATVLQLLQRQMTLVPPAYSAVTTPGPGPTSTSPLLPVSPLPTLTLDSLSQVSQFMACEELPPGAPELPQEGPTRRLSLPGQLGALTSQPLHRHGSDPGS

For orientation: MIC means the smallest concentration in the dilution series that meets the test's criterion for growth inhibition. Low values mean greater potency, high ones weaker potency. For orientation: IC50 means the point on the concentration scale where inhibition reaches its midpoint. Higher therefore signals weaker potency. For the molecule `C/C(=N\Nc1ccc(F)cc1)c1ccc(-c2ccc(/C(C)=N/Nc3ccc(F)cc3)cc2)cc1`, the outcome in [1] was inactive. Moreover, the minimal inhibitory concentration (MIC) in series [2] was 3.9 mg/L (≈ 8.58 µM); in series [3] it was 7.8 mg/L (≈ 17.2 µM); in series [4], 15.6 mg/L (≈ 34.3 µM); in [5] it was above 31.3 mg/L. Besides, the MIC50 in series [6] stood at 16 mg/L (≈ 35.2 µM). Besides, the MIC90 in series [6] was above 32 mg/L. Also, the selectivity ratio in series [7] was 8.5; in series [8], 4.3; in series [9], 2.1; in series [10], 1.1; in [13], 1 to 32; in [14], 1 to 32. In addition, the selectivity ratio in series [15] was 1 to 32; in [16], 1 to 32; in [17], 1 to 32; in [20], 16. In addition, the hemolysis at 1 h, 3.9 ug/ml in series [11] worked out at 2.6%. In addition, the hemolysis at 1 h, 62.5 ug/ml in series [12] amounted to 26.2%. For the same molecule, in [18], the result was Active. Besides, in series [19], the concentration for half-maximal inhibition (IC50) is above 30 µM.

The values are drawn from ChEMBL document CHEMBL4411307, “N,N'-diaryl-bishydrazones in a biphenyl platform: Broad spectrum antifungal agents” (Eur J Med Chem, 2019).
